{"source": "patent US20080153827A1", "about": "“Method for the Treatment or Prevention of Cardiac Hypertrophy” (priority 2004, published 2008)", "assay_type_in_all_cases": "in vivo, rat", "key": {"[1]": {"tested_on": "atrial natriuretic peptide (ANP) mRNA", "experiment": "Myocardial atrial natriuretic peptide (ANP) mRNA expression by quantitative real time PCR", "settings": "high dose (10 mg/l in drinking water), 7 weeks, high salt diet; FIG. 3", "description": "6-week-old male Dahl salt-sensitive rats (SS/JrHsd) received the following diet and drug regimens for 7 weeks: 1) Dahl SS controls on high salt diet, 2) Dahl SS rats on high salt diet+high-dose levosimendan (10 mg/l of levosimendan in drinking water), 3) Dahl SS rats on high salt diet+low-dose levosimendan (1 mg/l of levosimendan in drinking water) and 4) Dahl SS controls on low salt diet. High salt diet was produced by adding NaCl to commercial low salt diet. The consumption of drinking water and food as well as the body weight and general health of the animals were monitored. Systolic blood pressure was measured by using a tail cuff blood pressure at week 3.5 and week 7. […]\nTotal RNA from the rat hearts were collected, treated with DNAse 1 and reverse transcribed to cDNA by incubation of 50 min in 45° C. with presence of reverse transcription enzyme (Enhanced avian HS RT-PCR kit, Sigma Chemicals Co.). 1 μl of cDNA was subjected to a quantitative real time polymerase chain reaction by Lightcycler instrument (Roche Diagnostics) for detection of ANP and GAPDH mRNAs. […] After amplification the quality of PCR products were analyzed with the melting step consisting of heating to 95° C., cooling to annealing temperature for 15 seconds, and finally a slow rise in temperature to 95° C. with a continuous acquisition of fluorescence decline. […]"}, "[2]": {"tested_on": "Dahl salt-sensitive rats (SS/JrHsd) on high salt diet", "experiment": "Heart weight/body weight ratio in Dahl salt-sensitive rats on high salt diet", "settings": "both doses (10 mg/l and 1 mg/l in drinking water), 7 weeks, FIG. 1", "description": "(§1) 6-week-old male Dahl salt-sensitive rats (SS/JrHsd) received the following diet and drug regimens for 7 weeks: 1) Dahl SS controls on high salt diet, 2) Dahl SS rats on high salt diet+high-dose levosimendan (10 mg/l of levosimendan in drinking water), 3) Dahl SS rats on high salt diet+low-dose levosimendan (1 mg/l of levosimendan in drinking water) and 4) Dahl SS controls on low salt diet. High salt diet was produced by adding NaCl to commercial low salt diet. The consumption of drinking water and food as well as the body weight and general health of the animals were monitored. Systolic blood pressure was measured by using a tail cuff blood pressure at week 3.5 and week 7. At the end the study the hearts was excised, washed with ice-cold saline, blotted dry and weighed."}, "[3]": {"tested_on": "Myocardial SERCA2 and NCX expressions", "experiment": "Myocardial SERCA2/NCX protein ratio by Western blot", "settings": "both doses (10 mg/l and 1 mg/l in drinking water), 7 weeks, high salt diet; FIG. 2", "description": "as §1\nMyocardial SERCA2 and NCX expressions were determined by Western blot analysis using standard procedure. Myocardial samples were homogenized in extraction buffer and protease inhibitor. Myocardial samples (15 μg protein per lane) were electrophoretically separated by SDS-PAGE (8% Acryl amide). The proteins were transferred to a PVDF membrane by semi-dry blotting in electrophoresis device. […] The films were scanned in a densitometer and a semi-quantitative measurement of the relative intensity of each protein band was performed using the “GeneSnap”-software program."}, "[4]": {"tested_on": "Dahl salt-sensitive rats (SS/JrHsd) on high salt diet", "experiment": "Systolic blood pressure by tail cuff in Dahl salt-sensitive rats", "settings": "data not shown", "description": "as §1"}, "[5]": {"tested_on": "Dahl salt-sensitive rats (SS/JrHsd) on high salt diet", "experiment": "Echocardiography: interventricular septum (IVS) wall thickness", "settings": "3.5 weeks, FIG. 4", "description": "6-week-old male Dahl salt-sensitive rats (SS/JrHsd) received the following diet and drug regimens: Dahl salt-sensitive rats on low salt diet (1), on high salt diet (2), on high salt diet treated with 10 mg/l of levosimendan in drinking water (3), on high salt diet treated with 1 mg/l of levosimendan in drinking water (4) and on high salt diet treated with 0.5 mg/kg of the active metabolite (II) (OR-1896) of levosimendan in drinking water (5). High salt diet was produced by adding NaCl to commercial low salt diet. After 3.5 weeks transthoracic echocardiography was performed using a Toshiba Ultrasound System and a 15 MHz linear transducer under light isoflurane anesthesia. Using two-dimensional imaging, a short axis view of the left ventricle at the level of the papillary muscles was obtained and the two-dimensionally guided M-mode recording through the anterior and posterior walls of the left ventricle was obtained."}}, "data": [{"smiles": "CC1CC(=O)NN=C1c1ccc(NN=C(C#N)C#N)cc1", "note": "(single isomer, unassigned; (-)) [Levosimendan, (−)-enantiomer of [[4-(1,4,5,6-tetrahydro-4-methyl-6-oxo-3-pyridazinyl)phenyl]hydrazono]propanedinitrile]", "values": [{"measurement": "myocardial ANP mRNA expression", "setting": "[1]", "result": "decrease ANP mRNA expression to levels found in low salt diet controls"}, {"measurement": "development of cardiac hypertrophy measured as heart weight-to-body weight-ratio", "setting": "[2]", "result": "equally prevented the development of cardiac hypertrophy"}, {"measurement": "myocardial SERCA2-to-NCX-ratio", "setting": "[3]", "result": "increased SERCA2-to-NCX-ratio in the heart"}, {"measurement": "blood pressure", "setting": "[4]; high-dose (10 mg/l in drinking water)", "result": "produced a transient decrease in blood pressure"}, {"measurement": "blood pressure", "setting": "[4]; low-dose (1 mg/l in drinking water)", "result": "did not influence blood pressure"}, {"measurement": "Interventricular septum (IVS) wall thickness", "setting": "[5]; 10 mg/l and 1 mg/l in drinking water", "result": "significantly reduce the increased heart wall thickness"}]}, {"smiles": "CC(=O)Nc1ccc(C2=NNC(=O)C[C@H]2C)cc1", "note": "[active metabolite (II), (R)-N-[4-(1,4,5,6-tetrahydro-4-methyl-6-oxo-3-pyridazinyl)phenyl]acetamide]", "values": [{"measurement": "Interventricular septum (IVS) wall thickness", "setting": "[5]; 0.5 mg/kg in drinking water", "result": "significantly reduce the increased heart wall thickness"}]}]}
